DBAASP
≈ marks a conversion by molar mass, not a printed value.

Experiments:
Experiment in all cases: ≥ marks a high value that may be exact or a test limit, other limits are often not marked, values filed in µg/mL are converted to µM
[1] = system: Saccharomyces cerevisiae
[2] = system: Escherichia coli K-12 D31
[3] = system: Bacillus subtilis
[4] = system: Morganella morganii
[5] = system: Staphylococcus saprophyticus
[6] = system: Staphylococcus warneri
[7] = system: Staphylococcus haemolyticus
[8] = system: Staphylococcus aureus
[9] = system: Escherichia coli DH5alpha
[10] = system: Salmonella enterica
[11] = system: Candida albicans
[12] = system: Enterococcus faecium
[13] = system: Escherichia coli ATCC 27325
[14] = system: Staphylococcus aureus ATCC 25923
[15] = system: Pseudomonas aeruginosa ATCC 27853
[16] = system: Pseudomonas aeruginosa ATCC 15692
[17] = system: Lactobacillus acidophilus NCTC 1723
[18] = system: Escherichia coli ATCC 25922
[19] = system: Streptococcus mutans NCTC 10449
[20] = system: Enterococcus faecalis NCTC 12697
[21] = system: Acinetobacter baumannii NM8
[22] = system: Klebsiella pneumoniae ATCC 700603
[23] = system: Staphylococcus epidermidis RP62A
[24] = system: Staphylococcus epidermidis RP62A/1
[25] = system: Stenotrophomonas maltophilia B32/4
[26] = system: Candida albicans ATCC 90028
[27] = system: Escherichia coli ATCC 25726
[28] = system: Cryptococcus neoformans ATCC 34881
[29] = system: Saccharomyces cerevisiae ATCC 44774
[30] = system: Staphylococcus aureus ATCC 15752
[31] = system: Pseudomonas putida ATCC 17426
[32] = system: Candida albicans ATCC 10231
[33] = system: Streptococcus mutans ATCC 25175
[34] = system: Bacillus subtilis ATCC 62037
[35] = system: Salmonella enterica subsp. enterica serovar Enteritidis ATCC 13076
[36] = system: Streptococcus agalactiae 819
[37] = system: Helicobacter pylori ATCC 700392
[38] = system: Streptococcus agalactiae BCRC 10787
[39] = system: Pseudomonas aeruginosa ATCC 19660
[40] = system: Vibrio vulnificus 204
[41] = system: Helicobacter pylori ATCC 43629
[42] = system: Helicobacter pylori ATCC 43504
[43] = system: Helicobacter pylori
[44] = system: Vibrio alginolyticus
[45] = system: Enterococcus faecalis BCRC 10066
[46] = system: Aeromonas hydrophila BCRC 13018

Work on `CC[C@H](C)[C@H](NC(=O)[C@H](CC(C)C)NC(=O)[C@H](CCCCN)NC(=O)CNC(=O)[C@H](C)NC(=O)[C@H](Cc1cnc[nH]1)NC(=O)[C@@H](NC(=O)[C@H](CC(C)C)NC(=O)CNC(=O)[C@H](Cc1cnc[nH]1)NC(=O)[C@H](Cc1ccccc1)NC(=O)[C@@H](NC(=O)[C@H](CC(C)C)NC(=O)CNC(=O)[C@H](CC(C)C)NC(=O)[C@@H](N)Cc1ccccc1)[C@@H](C)CC)C(C)C)C(=O)N[C@@H](Cc1cnc[nH]1)C(=O)NCC(=O)N[C@@H](CC(C)C)C(=O)N[C@H](C(=O)N[C@@H](Cc1cnc[nH]1)C(=O)N[C@@H](CCCN=C(N)N)C(=O)N[C@@H](CC(N)=O)C(=O)N[C@@H](CCCN=C(N)N)C(=O)NCC(=O)O)[C@@H](C)CC` [FLGLIFHGLVHAGKLIHGLIHRNRG] yielded an MIC [1] of no less than 384 µM, an MIC [2] of 3 µM (≈ 8.33 µg/mL) and an MIC [3] of no less than 48 µM. It also gave an MIC [4] of 12 µM (≈ 33.3 µg/mL), an MIC [5] of 7.5 µM (≈ 20.8 µg/mL) and an MIC [6] of 15 µM (≈ 41.6 µg/mL). It also gave an MIC [7] of 7.5 µM (≈ 20.8 µg/mL), an MIC [8] of 1.5 µM (≈ 4.16 µg/mL) and an MIC [9] of 7.5 µM (≈ 20.8 µg/mL). For the same compound, the MIC [10] was 6 µM (≈ 16.7 µg/mL), the MIC [11] was 96 µM (≈ 267 µg/mL) and the MIC [12] was 15 µM (≈ 41.6 µg/mL).

`CC[C@H](C)[C@H](NC(=O)[C@H](CO)NC(=O)[C@H](CC(N)=O)NC(=O)[C@H](CC(C)C)NC(=O)[C@H](Cc1ccc(O)cc1)NC(=O)[C@H](CCCCN)NC(=O)[C@H](CCCCN)NC(=O)[C@@H](NC(=O)[C@H](C)NC(=O)[C@H](CCSC)NC(=O)[C@H](CCC(N)=O)NC(=O)[C@H](CCCCN)NC(=O)[C@H](CCCN=C(N)N)NC(=O)[C@H](CC(C)C)NC(=O)[C@H](CCCN=C(N)N)NC(=O)[C@@H](NC(=O)[C@H](Cc1ccc(O)cc1)NC(=O)[C@H](CC(N)=O)NC(=O)[C@H](CC(=O)O)NC(=O)[C@@H](NC(=O)[C@H](Cc1ccccc1)NC(=O)[C@@H](NC(=O)[C@H](C)NC(=O)[C@H](CC(=O)O)NC(=O)[C@H](CO)NC(=O)[C@@H](N)Cc1cnc[nH]1)C(C)C)[C@@H](C)O)[C@@H](C)O)C(C)C)C(=O)N[C@@H](CC(C)C)C(=O)N[C@@H](CC(N)=O)C(N)=O` [HSDAVFTDNYTRLRKQMAVKKYLNSILN] gave an MIC [13] of no less than 150 µM, an MIC [14] greater than 150 µM and an MIC [15] of 1.23 µM (≈ 4.1 µg/mL). For the same compound, the MIC [16] was no less than 75.1 µM, the MIC [17] was no less than 150 µM and the MIC [18] was 1.56 µM (≈ 5.2 µg/mL). For the same compound, the MIC [19] was no less than 45.3 µM and the MIC [20] was no less than 150 µM.

`CC[C@H](C)[C@H](N)C(=O)N[C@@H](CC(C)C)C(=O)NCC(=O)N[C@@H](C)C(=O)N[C@H](C(=O)N[C@@H](CC(C)C)C(=O)N1CCC[C@H]1C(=O)N[C@@H](CC(C)C)C(=O)N[C@H](C(=O)N[C@@H](CO)C(=O)NCC(=O)N[C@@H](CC(C)C)C(=O)N[C@@H](CC(C)C)C(=O)N[C@@H](CO)C(=O)N[C@@H](CC(N)=O)C(=O)N[C@@H](CCCCN)C(=O)N[C@@H](CC(C)C)C(N)=O)C(C)C)[C@@H](C)CC` [ILGAILPLVSGLLSNKL] gave an MIC [21] of no less than 128 µM, an MIC [22] greater than 256 µM and an MIC [14] of 128 µM (≈ 220 µg/mL). The MIC [23] was no less than 128 µM, the MIC [15] was greater than 256 µM and the MIC [24] was no less than 128 µM. For the same compound, the MIC [25] was no less than 256 µM, the MIC [26] was no less than 64 µM and the MIC [27] was no less than 256 µM.

For `CC[C@H](C)[C@H](NC(=O)[C@@H]1CCCN1C(=O)[C@H](Cc1c[nH]c2ccccc12)NC(=O)[C@H](CCC(N)=O)NC(=O)[C@H](CCCCN)NC(=O)[C@@H](NC(=O)[C@@H](NC(=O)[C@@H](N)CCCCN)C(C)C)C(C)C)C(=O)NCC(=O)N[C@@H](CCCCN)C(=O)N[C@H](C(=O)N[C@H](C(=O)N[C@@H](CCCCN)C(=O)N[C@@H](CCCCN)C(=O)N[C@H](C(=O)N[C@H](C(=O)N[C@@H](CCCCN)C(=O)N[C@@H](CCCCN)C(=O)N[C@H](C(=O)N[C@H](C(=O)N[C@@H](CCCCN)C(=O)O)C(C)C)C(C)C)C(C)C)C(C)C)C(C)C)C(C)C` [KVVKQWPIGKVVKKVVKKVVK], the MIC [28] was 0.827 µM (≈ 2 µg/mL), the MIC [29] was 0.827 µM (≈ 2 µg/mL) and the MIC [13] was 0.827 µM (≈ 2 µg/mL). The MIC [30] was 0.413 µM (≈ 1 µg/mL), the MIC [31] was 0.413 µM (≈ 1 µg/mL) and the MIC [32] was 0.413 µM (≈ 1 µg/mL). The MIC [33] was 0.827 µM (≈ 2 µg/mL), the MIC [34] was 0.827 µM (≈ 2 µg/mL) and the MIC [35] was 0.827 µM (≈ 2 µg/mL).

`CC[C@H](C)[C@H](NC(=O)[C@H](CC(C)C)NC(=O)[C@H](CCC(=O)O)NC(=O)[C@H](CCC(N)=O)NC(=O)[C@H](CC(C)C)NC(=O)[C@@H](NC(=O)[C@H](CCCCN)NC(=O)[C@H](CCC(N)=O)NC(=O)[C@@H](NC(=O)[C@@H](NC(=O)[C@H](CCC(=O)O)NC(=O)CNC(=O)[C@H](CO)NC(=O)[C@@H](NC(=O)[C@H](CCC(N)=O)NC(=O)[C@H](CCCCN)NC(=O)CNC(=O)[C@H](CCC(N)=O)NC(=O)[C@H](CC(C)C)NC(=O)[C@@H](N)CCC(N)=O)C(C)C)C(C)C)C(C)C)C(C)C)C(=O)N[C@@H](CCC(N)=O)C(=O)N[C@@H](CO)C(=O)N[C@H](C(=O)N[C@@H](C)C(=O)N[C@@H](CCCCN)C(=O)N1CCC[C@H]1C(N)=O)C(C)C` [QLQGKQVSGEVVQKVLQELIQSVAKP] gave an MIC [36] of 6.22 µM (≈ 17.6 µg/mL), an MIC [37] of 4.23 µM (≈ 12 µg/mL) and an MIC [38] of 6.22 µM (≈ 17.6 µg/mL). It also gave an MIC [39] of 6.22 µM (≈ 17.6 µg/mL), an MIC [40] of 6.22 µM (≈ 17.6 µg/mL) and an MIC [41] of 4.23 µM (≈ 12 µg/mL). For the same compound, the MIC [42] was 4.23 µM (≈ 12 µg/mL), the MIC [43] was 4.23 µM (≈ 12 µg/mL) and the MIC [44] was 6.22 µM (≈ 17.6 µg/mL). It also gave an MIC [45] of 6.22 µM (≈ 17.6 µg/mL) and an MIC [46] of 6.22 µM (≈ 17.6 µg/mL).
